The source of these data is ChEMBL document CHEMBL1201862, “PubChem BioAssay data set” (2004).

Test in all cases: growth of human tumour cells (NCI), 48 h
Experiment [1] concerns ACHN.
Experiment [2] has as its system EKVX.
The test system of experiment [3] is HCC 2998.
Experiment [4] concerns HOP-62.
Experiment [5] has as its system HOP-92.
For experiment [6], the system named is LOX IMVI.
For experiment [7], the system named is M14.
The test system of experiment [8] is MCF7.
The subject of experiment [9] is Malme-3M.
The test system of experiment [10] is OVCAR-4.
Experiment [11] deals with SK-MEL-28.
Experiment [12] deals with SK-MEL-2.
The subject of experiment [13] is SK-MEL-5.
The test system of experiment [14] is SNB-19.
Experiment [15] concerns SW-620.
Experiment [16] deals with U-251.
The subject of experiment [17] is UACC-62.
Experiment [18] relates to UO-31.

SMILES strings stand for the structures.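 96-well plates; 48 h exposure; 5 concentrations. Endpoints by linear interpolation between flanking doses. Not reached: highest tested concentration assigned. GI50: concentration for 50% inhibition of growth.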 Activity calls are given as the source filed them. Cut-off read from the data, not from the text of the source: active = GI50 up to about 1.1 µM and inactive = higher.

Take `CN1N=C(c2ccncc2)OC1c1ccc(Cl)c(Cl)c1` (stereo unspecified): the GI50 in experiment [1], in experiment [2], in experiment [3], in [4], in experiment [5] and in [6] was > 100 µM (inactive) in each case. Besides, the GI50 in experiment [7], in experiment [8], in [9], in experiment [10], in experiment [11] and in experiment [12] was > 100 µM (inactive) throughout. The GI50 in experiment [13], in experiment [14], in [15], in experiment [16], in [17] and in [18] was > 100 µM (inactive) throughout.

Take `CCOC(=O)C(NS(=O)(=O)c1ccccc1)(C(F)(F)F)P(=O)(OCC(C)C)OCC(C)C` (stereo unspecified): the GI50 in [1], in experiment [2], in [3], in [4], in experiment [5] and in experiment [6] was > 100 µM (inactive) in each case. The GI50 in [7], in [8], in experiment [9], in experiment [10], in experiment [11] and in experiment [13] was > 100 µM (inactive) each time. Further, the GI50 was > 100 µM (inactive) in [14]; > 100 µM (inactive) in experiment [15]; > 100 µM (inactive) in [16]; > 100 µM (inactive) in [17]; 98.2 µM (inactive) in experiment [18].

With `O=c1cc(-c2ccc(O)cc2)n(C2CC2)c2ccccc12`, the GI50 in experiment [1] is 2.47 µM (inactive); in [4] it was 4.41 µM (inactive); in experiment [5], 3.52 µM (inactive); in experiment [6] it was 4.67 µM (inactive); in experiment [7] it was 6.89 µM (inactive); in [8], 4.66 µM (inactive). In addition, the GI50 in [12] was 2.77 µM (inactive); in experiment [13], 6.4 µM (inactive); in experiment [14] it was 5.08 µM (inactive); in experiment [15], 5.05 µM (inactive); in experiment [16] it was 5.31 µM (inactive); in experiment [17] it was 3.91 µM (inactive). For the same molecule, the GI50 in experiment [18] is 4.02 µM (inactive).

On to `COc1cc(S(=O)(=O)Nc2nc(-c3ccc(N4C(=O)C(CC(=O)O)SC4c4ccccc4O)cc3)cs2)ccc1Cl` (stereo unspecified), for which the GI50 is > 100 µM (inactive) in [1]; 9.93 µM (inactive) in [3]; 90.4 µM (inactive) in experiment [4]; 31 µM (inactive) in [5]; > 100 µM (inactive) in experiment [6]; > 100 µM (inactive) in experiment [7]. The GI50 was 42.5 µM (inactive) in experiment [8]; > 100 µM (inactive) in experiment [9]; 34.3 µM (inactive) in experiment [10]; > 100 µM (inactive) in [11]; > 100 µM (inactive) in [12]; 29 µM (inactive) in experiment [13]. Further, the GI50 in experiment [14] was > 100 µM (inactive); in [15], > 100 µM (inactive); in [16], 45.8 µM (inactive); in experiment [17], 72.9 µM (inactive); in [18], > 100 µM (inactive).

With `COC(=O)[C@H]1[C@H](OC(=O)[C@@H](OC)c2ccccc2)ON2CC[C@@H](OC(=O)c3ccccc3)[C@H]12`, the GI50 in [1] was 10.3 µM (inactive); in experiment [2], > 100 µM (inactive); in experiment [3] it was > 100 µM (inactive); in experiment [4] it was 35.1 µM (inactive); in experiment [5] it was 30.3 µM (inactive); in experiment [6] it was > 100 µM (inactive). The GI50 in [7] was > 100 µM (inactive); in experiment [8], 3.83 µM (inactive); in experiment [9], > 100 µM (inactive); in experiment [10] it was > 100 µM (inactive); in experiment [11], > 100 µM (inactive); in [12], 48.1 µM (inactive). Besides, the GI50 in [13] is > 100 µM (inactive); in experiment [14] it was > 100 µM (inactive); in experiment [16], 70.1 µM (inactive); in experiment [17], 10.7 µM (inactive); in experiment [18], > 100 µM (inactive).

`Cc1ccc(SSc2ccc(C)cc2C(=O)O)c(C(=O)O)c1`: the GI50 in experiment [1], in experiment [2], in [4], in experiment [5], in experiment [6] and in experiment [9] was > 100 µM (inactive) in each case. Moreover, the GI50 in [10], in experiment [11], in experiment [12], in experiment [13], in [14] and in [15] was > 100 µM (inactive) each time. Moreover, the GI50 in [16], in [17] and in [18] was > 100 µM (inactive) each time.

Regarding `O=C1c2ccccc2C(=O)N1CCc1ncc[nH]1`, the GI50 in experiment [1], in [2], in experiment [5], in experiment [6], in experiment [7] and in [8] was > 100 µM (inactive) throughout. Also, the GI50 in experiment [11], in [12], in experiment [13], in experiment [14], in experiment [15] and in [17] was > 100 µM (inactive) each time. The GI50 in experiment [18] is > 100 µM (inactive).

Take `O/N=C(\C(=N/O)Nc1ccc(-c2ccc(NC(=N/O)/C(=N\O)c3ccccc3)cc2)cc1)c1ccccc1`: the GI50 in experiment [1] is 30.6 µM (inactive); in [2] it was 20.4 µM (inactive); in [3], 0.214 µM (active); in [4], 11 µM (inactive); in experiment [5] it was 20 µM (inactive); in experiment [6], 15.3 µM (inactive). Also, the GI50 in experiment [7] was 17.9 µM (inactive); in experiment [9], 19.4 µM (inactive); in experiment [12] it was 20.2 µM (inactive); in [13], 20.3 µM (inactive); in experiment [14] it was 19.2 µM (inactive); in [15] it was 22.2 µM (inactive). For the same molecule, the GI50 in experiment [16] is 25.7 µM (inactive); in experiment [17] it was 18.5 µM (inactive); in [18], 31.8 µM (inactive).

As for `CN(C)/C=N/n1c2ccccc2c2ccccc21`, the GI50 in experiment [1], in experiment [2], in [3], in [4], in experiment [6] and in experiment [7] was > 100 µM (inactive) each time. Also, the GI50 is > 100 µM (inactive) in experiment [8]; 50.1 µM (inactive) in experiment [9]; > 100 µM (inactive) in experiment [10]; > 100 µM (inactive) in experiment [11]; > 100 µM (inactive) in experiment [12]; > 100 µM (inactive) in experiment [13]. In addition, the GI50 in experiment [14], in experiment [15], in experiment [16], in experiment [17] and in [18] was > 100 µM (inactive) throughout.

`O=C1OC(C2=CC(=O)c3ccccc3C2=O)C(Cl)=C1Cl` (stereo unspecified): the GI50 was 15.8 µM (inactive) in experiment [1]; 37.8 µM (inactive) in [2]; 25.1 µM (inactive) in experiment [3]; 33.1 µM (inactive) in [4]; 47 µM (inactive) in experiment [5]; 20.2 µM (inactive) in experiment [6]. Further, the GI50 in experiment [7] was 39.3 µM (inactive); in experiment [8], 20.9 µM (inactive); in experiment [9], 26.5 µM (inactive); in [11] it was 41 µM (inactive); in [12], 14.1 µM (inactive); in experiment [13], 31.1 µM (inactive). Further, the GI50 is 56.1 µM (inactive) in experiment [14]; 35.2 µM (inactive) in [15]; 28.1 µM (inactive) in [16]; 17.4 µM (inactive) in experiment [17]; 13.7 µM (inactive) in [18].

In the case of `Nc1ccc(C(=O)N/C(=C\C=C\c2ccco2)c2nc3c(O)nc(S)nc3[nH]2)cc1`, the GI50 in experiment [1], in [2], in experiment [3], in [5], in experiment [7] and in [9] was > 100 µM (inactive) each time. The GI50 in experiment [10], in [11], in experiment [12], in experiment [13], in [14] and in experiment [15] was > 100 µM (inactive) each time. Further, the values for the GI50 in experiment [16], in [17] and in experiment [18] were > 100 µM (inactive), > 10 µM (inactive) and > 100 µM (inactive), respectively.

Turning to `CCC(CO)Nc1nc2c(c(=O)n(C)c(=O)n2C)n1CCO` (stereo unspecified), the GI50 in [1], in [2], in experiment [3], in [5], in experiment [9] and in [11] was > 100 µM (inactive) each time. Further, the GI50 in experiment [12], in experiment [13], in experiment [14], in experiment [15], in [16] and in [17] was > 100 µM (inactive) throughout. Further, the GI50 in experiment [18] was > 100 µM (inactive).

With `CNc1cc([N+](=O)[O-])ccc1C(=O)N1CCC[C@H]1CO`, the GI50 in experiment [1], in experiment [2], in experiment [4], in experiment [5], in [6] and in experiment [7] was > 100 µM (inactive) each time. Further, the GI50 in experiment [8], in experiment [11], in experiment [12], in [14], in experiment [15] and in experiment [16] was > 100 µM (inactive) each time. Also, the GI50 in experiment [17] and in experiment [18] was > 100 µM (inactive) throughout.
